# In patent US20180021347A1, “COMPOSITION FOR THE TREATMENT OF HEPATIC VENO-OCCLUSIVE DISEASE” (priority 2015, published 2018):
# Assays:
# [1] = human, in vivo; cited from earlier work
# [2] = cited from earlier work
# [3] = cited from earlier work; remark: listed apart in the source
# [4] = test system: plasminogen-activator inhibitor-1 (PAI-1); experiment: qPCR of candidate target gene mRNA in TSECs: PAI-1; assay type: cell-based, human
# Description: (§1) After pretreatment of TESCs with 10 μM treprostinil for 1 h, cells were co-incubated with 10 μM treprostinil and 125 μM BU for 24 h. Total RNA was extracted by the use of PARIS Kit (life technologies). cDNA synthesis was performed by High-Capacity Reverse Transcription Kit (applied biosystems); the resulting cDNA (equivalent to 50 ng RNA/reaction) was analyzed via qPCR (StepOnePlus real-time PCR System®, Applied Biosystems). 18s rRNA was used as a reference gene.
# (§2) Based on preliminary experiments we identified plasminogen-activator inhibitor-1 (PAI-1), tissue factor (TF), tissue factor pathway inhibitor (TFPI) and thrombomodulin (TM) as suitable genes to study the potential of treprostinil to counteract busulfan-induced effects in TSECs. We also tested if busulfan-mediated effects are counteracted by 10 μM treprostinil. A total of 1.5×10^5 TESCs were plated in 6 well plates. As soon as 90% confluence was reached, cells were pretreated with treprostinil for 1 h, then cells were incubated for 24h in standard culture medium containing both BU and treprostinil. Thereafter, cells were washed and mRNA was prepared. Treprostinil counteracted the busulfan-induced increased expression of procoagulatory factors such as PAI-1 and TF (data not shown). […]
# tissue factor (TF) = experiment: qPCR of candidate target gene mRNA in TSECs: TF; assay type: cell-based, human
# Description: as §1, §2
# EC340 cells = conditions: 96h; cited from earlier work
# TSECs [5] = experiment: Yield of RNA/mRNA from TSECs after busulfan and treprostinil; assay type: cell-based, human
# Description: In EC340 cells, concentrations as high as 300 μM were tolerated for 96h and allowed for investigating target gene expression and regulation upon treatment with busulfan. This concentration was not compatible with the extraction of mRNA in TSECs: the amount, quality and stability of mRNA were affected in a dose- and time-dependent manner (FIG. 5 and data not shown). […] Based on the time course of gene regulation in EC340 cells, we tested a treatment duration between of a minimum of 12h and a maximum of 96h (data not shown).
# Cells were either treated with 125 μM, 250 μM or 300 μM BU, the combination thereof with treprostinil (10 μM), or treprostinil (10 μM) alone, or kept in standard medium [Endothelial Cell Medium, ECM Sciencell™, USA, TSECs containing 5% fetal bovine serum, 1% endothelial cell growth supplement (ECGS) and 1% penicillin/streptomycin at 37° C. and 5% CO2]. a) Total RNA was extracted by Trizol® (lifetechnologies) according to the manufacturer's protocol. RNA concentration (ng/μl) and purity was determined with Nanodrop 2000®. If equal numbers of cells (1.6×10^5) were seeded per well, treatment with 250 and 300 μM BU induced cell death in as much rendering reproducible and valid yields of absolute RNA content impossible, already after 48h of treatment. b) The absolute yield in RNA preparations (μg/μl) was compared between cells, which had been incubated in standard medium (untreated), and cells, which had been treated with BU (125 or 250 μM BU) plus treprostinil (10 μM Trep), or treprostinil alone.
# thrombomodulin (TM) = experiment: qPCR of candidate target gene mRNA in TSECs: TM; assay type: cell-based, human; conditions: data not shown
# Description: as §1, §2
# [6] = test system: tissue factor pathway inhibitor (TFPI); experiment: qPCR of candidate target gene mRNA in TSECs: TFPI; assay type: cell-based, human
# Description: as §1
# Based on preliminary experiments we identified plasminogen-activator inhibitor-1 (PAI-1), tissue factor (TF), tissue factor pathway inhibitor (TFPI) and thrombomodulin (TM) as suitable genes to study the potential of treprostinil to counteract busulfan-induced effects in TSECs. We also tested if busulfan-mediated effects are counteracted by 10 μM treprostinil. A total of 1.5×10^5 TESCs were plated in 6 well plates. As soon as 90% confluence was reached, cells were pretreated with treprostinil for 1 h, then cells were incubated for 24h in standard culture medium containing both BU and treprostinil. Thereafter, cells were washed and mRNA was prepared. Treprostinil counteracted the busulfan-induced increased expression of procoagulatory factors such as PAI-1 and TF (data not shown). […] These observations justify the use of TSECs as an in vitro model system to study surrogate parameters, which are predictive of an increased risk of VOD in vivo.
# Treatment of TESCs was performed as indicated in the legend to FIG. 6. Treprostinil-treatment was initiated 1 h prior to addition of busulfan. Cells were collected 24 h later.
# TSECs [7] = experiment: Busulfan-induced death of TSECs (trypan blue cell viability); assay type: cell-based, human
# Description: (Cheuk D K et al, Bone Marrow transplant 40: 935-944, 2007). We tested, if the toxicity of busulfan was amenable to in vitro studies on TSECs. Accordingly, we defined the concentration-response curve for busulfan-induced death of TSECs. In analogy to Raimer J et al (EurJClinPharmacol 68: 932-935, 2012), who had used ECV304 cells, we plated TSECs on collagen-coated plastic dishes (5×10^3 cells/24-well plate). After 24 hours, busulfan was added at increasing concentrations (10 μM-1 mM). The concentration range was based on reports in the literature and on the serum levels observed in patients undergoing myeloablative chemotherapy. Cell viability was assessed after 24, 48 and 72 h.
# TSECs were plated on collagen-coated plastic dishes (5*10^3 cells/24-well plate). After 24 hours busulfan, a cell cycle non-specific alkylating antineoplastic agent, in the class of alkyl sulfonates with a chemical designation is 1,4-butanediol dimethanesulfonate, used as chemotherapeutic agent and known to induce VOD, was added at increasing concentrations (10 μM-1 mM). The concentration range is based on reports in the literature and on the serum levels observed in patients undergoing myeloablative chemotherapy. Cell viability was assessed after 24, 48 and 72 hours. For this purpose cells were washed twice with PBS, trypsinized, mixed with trypan blue (1:1 volumes) and counted using a hemocytometer. […] The data (means±standard deviation) shown represent cell death after for 48 hours.
# EP3-receptors = target: T1, EP3-receptors (Homo sapiens, UniProt P43115); conditions: inhibitory Gi-coupled EP3-receptors; cited from earlier work
# T1 sequence (P43115 1-390): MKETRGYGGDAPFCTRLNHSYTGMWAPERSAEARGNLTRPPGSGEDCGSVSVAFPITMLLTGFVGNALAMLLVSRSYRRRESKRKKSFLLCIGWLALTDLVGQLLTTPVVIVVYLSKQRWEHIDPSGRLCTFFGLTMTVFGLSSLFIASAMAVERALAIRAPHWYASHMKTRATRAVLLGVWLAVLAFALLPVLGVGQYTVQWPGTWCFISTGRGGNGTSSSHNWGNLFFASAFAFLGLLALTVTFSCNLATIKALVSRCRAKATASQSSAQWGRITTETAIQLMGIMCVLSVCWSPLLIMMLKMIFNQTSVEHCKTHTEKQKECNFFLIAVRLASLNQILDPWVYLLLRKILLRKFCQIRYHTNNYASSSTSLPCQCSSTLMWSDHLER
# TSECs [8] = experiment: Attenuation by treprostinil of busulfan-induced cell death in TSECs; assay type: cell-based, human
# Description: TSECs were pretreated with treprostinil (10 μM) for 1 h and examined, if this protected them against busulfan-induced cell death by challenging them—in the continuous presence of treprostinil—with 125 and 250 μM and 500 μM Busulfan (BU). After 24 h, cell viability was determined by counting detached cells in a haemocytometer and determining the number of trypan blue-positive (=dead) and trypan-blue excluding (=live) cells.
# TSECs were plated on collagen-coated plastic dishes (5*10^3 cells/24-well plate). After 24 hours treprostinil was added at a concentration of […]. One hour later, busulfan was added at increasing concentrations. Cell viability was assessed after 48 hours.
# We examined the concentration range, in which treprostinil protected TSECs against busulfan-induced cell death. TSECs were plated on collagen-coated plastic dishes and after 24 h treprostinil was added at concentrations of 5, 10 and 20 pM. One hour later, busulfan was added at concentrations of 125 and 250 μM. Cell viability was assessed after 48 h. […] The data were analyzed using a 2-way ANOVA.
# TSECs were plated on collagen-coated plastic dishes (5*10^3 cells/24-well plate). After 24 hours treprostinil was added at concentrations of 5, 10 and 20 pM. One hour later, busulfan was added at concentration of 125 and 250 μM. Cell viability was assessed after 48 hours. Even low concentrations of treprostinil (5 μM) attenuated busulfan induced cell death. […] The data were analyzed by two-way ANOVA. A Bonferroni post hoc test was conducted to test for differences between individual treatment groups.
# EP4-receptors = EP4-receptors (Homo sapiens, UniProt P35408); conditions: cited from earlier work
# Sequence of EP4-receptors (P35408 whole entry): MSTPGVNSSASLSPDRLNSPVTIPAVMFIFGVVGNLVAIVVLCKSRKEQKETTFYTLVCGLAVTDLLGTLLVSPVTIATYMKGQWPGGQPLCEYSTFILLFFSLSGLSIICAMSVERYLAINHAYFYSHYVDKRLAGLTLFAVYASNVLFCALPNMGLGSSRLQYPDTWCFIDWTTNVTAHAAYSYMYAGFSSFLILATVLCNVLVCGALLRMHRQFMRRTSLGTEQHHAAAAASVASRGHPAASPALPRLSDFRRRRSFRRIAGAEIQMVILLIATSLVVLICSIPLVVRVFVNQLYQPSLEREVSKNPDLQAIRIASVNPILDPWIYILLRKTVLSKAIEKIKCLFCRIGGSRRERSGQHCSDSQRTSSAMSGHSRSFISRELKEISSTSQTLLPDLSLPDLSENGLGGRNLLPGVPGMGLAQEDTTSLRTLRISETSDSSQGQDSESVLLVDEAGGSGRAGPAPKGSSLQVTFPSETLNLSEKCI
# EP2-receptors = EP2-receptors (Homo sapiens, UniProt P43116); conditions: cited from earlier work
# Sequence of EP2-receptors (P43116 whole entry): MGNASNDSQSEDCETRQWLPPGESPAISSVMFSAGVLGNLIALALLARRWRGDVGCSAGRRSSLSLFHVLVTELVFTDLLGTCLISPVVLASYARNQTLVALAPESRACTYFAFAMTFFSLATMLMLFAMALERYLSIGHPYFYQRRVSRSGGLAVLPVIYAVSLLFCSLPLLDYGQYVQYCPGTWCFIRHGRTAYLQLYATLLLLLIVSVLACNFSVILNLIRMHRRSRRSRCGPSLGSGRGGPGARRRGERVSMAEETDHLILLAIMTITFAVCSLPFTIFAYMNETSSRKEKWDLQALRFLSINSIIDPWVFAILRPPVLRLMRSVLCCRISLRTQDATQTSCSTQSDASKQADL
# [9] = test system: intracellular cAMP levels in TSECs; experiment: cAMP accumulation in TSECs; assay type: cell-based, human; conditions: 1 h
# Description: It is desirable to understand the mechanisms, which allow treprostinil to modulate busulfan-induced gene expression, because this allows for searching for additional target genes. It was assumed that the action of treprostinil is mediated by an increased accumulation of cAMP. […] This was seen both, in the presence of 30 μM forskolin ([…], left hand panel) and if the concentration of forskolin was titrated between 1 and 30 μM (FIG. 6, middle and right hand panel). It was also seen regardless of whether [^3H]cAMP was low (FIG. 6, middle panel) or high (FIG. 6, right hand panel).
# Control cells were incubated in standard medium. For comparison, cAMP accumulation was also assessed after incubation with dmPGE2. […] In the third experiment, the response was higher, presumably due to more extensive labelling of the adenine nucleotide pool. However, in none of the experiments tested, treprostinil alone sufficed to increase intracellular cAMP levels over that seen in untreated control cells.
# [10] = 10 μM treprostinil 1 h pretreatment, then with 125 μM BU for 24 h, data not shown
smiles,measurement,setting,value
CCCCC[C@H](O)/C=C/[C@@H]1[C@H]2C/C(=C/CCCC(=O)O)O[C@H]2C[C@H]1O [Flolan],maximum tolerable dosage,[1],5 to 8 ng/kg/day
same,serum half-life,[2],very short
"CCCCC[C@H](O)/C=C/[C@H]1[C@H](O)CC(=O)[C@@H]1CCCCCCC(=O)O [PGE1, prostaglandin E1]",advantage in VOD,"[3]; PGE1 alone (Senzolo M. et al., 2007)",failed to show any advantage
"CS(=O)(=O)OCCCCOS(C)(=O)=O [busulfan, 1,4-butanediol dimethanesulfonate]",PAI-1 expression,"[4]; busulfan 125 μM, 24 h",induces the expression
same,TF expression,"tissue factor (TF); busulfan 125 μM, 24 h",induces the expression
same,tolerated concentration,EC340 cells,≤ 300 µM
same,highest busulfan concentration allowing harvest of mRNA of adequate quality for qPCR,TSECs [5]; 48 h pretreatment of TSECs,125 µM
same,yield of RNA compared to untreated cells (100%),TSECs [5]; busulfan 125 μM for 48h,85%
same,yield of RNA compared to untreated cells (100%),TSECs [5]; busulfan 250 μM for 48h,74%
same,thrombomodulin (TM) expression,"thrombomodulin (TM); busulfan 125 μM, 24 h",decreased the expression
same,expression of TFPI,[6]; busulfan,induced
same,"cell death of TSECs, concentration dependence","TSECs [7]; busulfan 10 μM-1 mM, 48 hours, absence of hepatocytes (FIG. 2)",induced cell death in a concentration dependent manner
same,cell death of TSECs,"TSECs [7]; busulfan 10 μM-1 mM, after 24 h",No obvious cell death
same,cell death of TSECs,"TSECs [7]; busulfan, also at lower concentrations, after 72 h",almost complete cell death
CCCCC(C)(C)[C@H](O)/C=C/[C@H]1[C@H](O)CC(=O)[C@@H]1C/C=C\CCCC(=O)O [dimethyl-PGE2],agonism at EP3-receptors,EP3-receptors,full agonist
CCCCC[C@H](O)/C=C/[C@H]1[C@H](O)CC(=O)[C@@H]1C/C=C\CCCC(=O)O [prostaglandin E2],incidence of VOD,"[3]; in combination with heparin (Senzolo M. et al., 2007)",lower incidence of VOD
"CCCCC[C@H](O)CC[C@@H]1[C@H]2Cc3cccc(OCC(=O)[O-])c3C[C@H]2C[C@H]1O.[Na+] [treprostinil, (1R,2R,3aS,9aS)-[[2,3,3a,4,9,9a-hexahydro-2-hydroxy-1-[(3S)-3-hydroxyoctyl]-1H-benz[f]inden-5-yl]oxy]acetic acid monosodium salt]",concentration close to saturation of protection against busulfan-induced cell death,"TSECs [8]; busulfan 125 and 250 μM, 48 h",10 µM
same,cell viability,"TSECs [8]; treprostinil 10 pM added 1 hour before busulfan 125 and 250 μM, 48 hours",increased viability
same,effect on busulfan-induced cell death,"TSECs [8]; treprostinil 5 μM, busulfan 125 and 250 μM, 48 h",attenuated busulfan-induced cell death
same,effect on BU-induced toxicity (cell viability),"TSECs [8]; treprostinil 10 μM, 1 h pretreatment, busulfan 125, 250 and 500 μM, after 24 h, three independent experiments",attenuated BU-induced toxicity
same,beneficial effect on busulfan induced cell death at higher concentrations,"TSECs [8]; treprostinil above 5 μM (10 and 20), busulfan 125 and 250 μM, 48 hours",did not increase at higher concentrations
same,stimulation of EP4-receptors,EP4-receptors,selectively stimulates
same,effect on busulfan-induced increased expression of PAI-1,[4]; [10],counteracted
same,effect on busulfan-induced increased expression of TF,tissue factor (TF); [10],counteracted
same,loss in RNA yield,"TSECs [5]; busulfan plus 10 μM treprostinil, pretreated 1 hour and co-incubated 24 h",11%
same,RNA content compared to control cells,"TSECs [5]; treprostinil alone (10 μM), 5 independent RNA preparations",111%
same,stimulation of EP2-receptors,EP2-receptors,selectively stimulates
same,effect on busulfan-induced decrease of TM expression,"thrombomodulin (TM); 10 μM treprostinil 1 h pretreatment, then with 125 μM BU for 24 h",mitigated the effect of busulfan
same,agonism at EP3-receptors,EP3-receptors,low affinity agonist
same,intracellular cAMP levels,[9]; sole addition of treprostinil,did not suffice to increase intracellular cAMP levels
same,intracellular cAMP levels,"[9]; treprostinil 10 μM, cells sensitized with forskolin (1 to 30 μM)",further increased intracellular cAMP levels
same,expression of TFPI,[6]; treprostinil,induced
same,"regulation of expression of mRNA of TFPI, concentration dependence",[6]; treprostinil in TESCs,concentration-dependent manner
